Assay results reported in the supplement of paper PMC10307832.

Columns and labels:
Assay in all cases: relative viability (nuclei count vs DMSO), 5 days (fraction); higher = more cells survive
AZD1208 + Linsitinib = compound: N[C@@H]1CCCN(c2c(/C=C3\SC(=O)NC3=O)cccc2-c2ccccc2)C1 [AZD1208] + C[C@]1(O)C[C@@H](c2nc(-c3ccc4ccc(-c5ccccc5)nc4c3)c3c(N)nccn32)C1 [Linsitinib] (partner 1 µM)
How it was run: (§1)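 One day after seeding in 1536-well plates, lung cancer cell lines were dosed by pin tool. Dosing was either single-drug or a fixed anchor-drug dose plus five library-drug doses (not always all listed) in √10 steps. After 5 days, nuclei were stained in one fix-and-stain step and counted on 4× images, and relative viability is the nuclei count of treated wells over that of vehicle wells, given as the median of duplicate plates.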

XMD14-99 + Tozasertib = compound: CN1CCN(CC1)C2=CC(=C(C=C2)NC3=NC(=C(S3)C(=O)C4=C(C=CC=C4Cl)Cl)N)OC [XMD14-99] + Cc1cc(Nc2cc(N3CCN(C)CC3)nc(Sc3ccc(NC(=O)C4CC4)cc3)n2)n[nH]1 [Tozasertib] (partner 0.1 µM)
How it was run: as §1

AZD1208 + Palbociclib = compound: N[C@@H]1CCCN(c2c(/C=C3\SC(=O)NC3=O)cccc2-c2ccccc2)C1 [AZD1208] + CC(=O)c1c(C)c2cnc(Nc3ccc(N4CCNCC4)cn3)nc2n(C2CCCC2)c1=O [Palbociclib] (partner 0.5 µM)
How it was run: as §1

AZD1208 + Navitoclax = compound: N[C@@H]1CCCN(c2c(/C=C3\SC(=O)NC3=O)cccc2-c2ccccc2)C1 [AZD1208] + CC1(C)CCC(c2ccc(Cl)cc2)=C(CN2CCN(c3ccc(C(=O)NS(=O)(=O)c4ccc(N[C@H](CCN5CCOCC5)CSc5ccccc5)c(S(=O)(=O)C(F)(F)F)c4)cc3)CC2)C1 [Navitoclax] (partner 0.5 µM)
How it was run: as §1

Cell Line | relative viability (AZD1208 + Linsitinib; first compound 0.08 µM) | relative viability (AZD1208 + Linsitinib; first compound 0.253 µM) | relative viability (AZD1208 + Linsitinib; first compound 0.8 µM) | relative viability (AZD1208 + Linsitinib; first compound 2.53 µM) | relative viability (AZD1208 + Linsitinib; first compound 8 µM) | relative viability (XMD14-99 + Tozasertib; first compound 0.08 µM) | relative viability (XMD14-99 + Tozasertib; first compound 0.8 µM) | relative viability (XMD14-99 + Tozasertib; first compound 2.53 µM) | relative viability (XMD14-99 + Tozasertib; first compound 8 µM) | relative viability (AZD1208 + Palbociclib; first compound 0.08 µM) | relative viability (AZD1208 + Palbociclib; first compound 0.253 µM) | relative viability (AZD1208 + Palbociclib; first compound 0.8 µM) | relative viability (AZD1208 + Palbociclib; first compound 2.53 µM) | relative viability (AZD1208 + Palbociclib; first compound 8 µM) | relative viability (AZD1208 + Navitoclax; first compound 0.08 µM) | relative viability (AZD1208 + Navitoclax; first compound 0.253 µM) | relative viability (AZD1208 + Navitoclax; first compound 0.8 µM) | relative viability (AZD1208 + Navitoclax; first compound 2.53 µM) | relative viability (AZD1208 + Navitoclax; first compound 8 µM)
NCI-H650 | 0.877 | 0.83 | 0.784 | 0.482 | 0.71 | 0.747 | 0.688 | 0.667 | 0.581 | 0.309 | 0.287 | 0.314 | 0.29 | 0.289 | – | – | – | – | –
NCI-H1792 | 0.474 | 0.648 | 0.446 | 0.439 | 0.467 | – | – | – | – | 0.697 | 0.663 | 0.616 | 0.587 | 0.554 | 0.678 | 0.779 | 0.531 | 0.645 | 0.557
ChaGo-K-1 | – | – | – | – | – | 0.217 | 0.199 | 0.208 | 0.226 | 0.905 | 0.969 | 0.874 | 0.906 | 0.884 | 1.16 | 1.05 | 1.09 | 0.834 | 0.785
NCI-H522 | – | – | – | – | – | 0.513 | 0.646 | 0.712 | 0.639 | 0.915 | 1.09 | 0.896 | 0.942 | 0.76 | – | – | – | – | –
NCI-H1299 | 1.03 | 1.13 | 0.997 | 1.01 | 1.08 | – | – | – | – | – | – | – | – | – | 1.1 | 1.09 | 1.08 | 1 | 1.04
NCI-H1650 | – | – | – | – | – | 0.351 | 0.422 | 0.319 | 0.258 | 0.331 | 0.401 | 0.311 | 0.323 | 0.35 | 1.07 | 1.15 | 1.04 | 1.02 | 1.19
NCI-H1648 | – | – | – | – | – | 0.362 | 0.292 | 0.316 | 0.253 | 0.277 | 0.255 | 0.244 | 0.227 | 0.294 | – | – | – | – | –
NCI-H2342 | – | – | – | – | – | 0.483 | 0.628 | 0.591 | 0.516 | 0.494 | 0.456 | 0.494 | 0.548 | 0.456 | – | – | – | – | –
SW 900 | – | – | – | – | – | 0.665 | 0.453 | 0.451 | 0.37 | 0.524 | 0.49 | 0.497 | 0.571 | 0.511 | – | – | – | – | –
A549 | 0.513 | 0.553 | 0.504 | 0.462 | 0.512 | – | – | – | – | – | – | – | – | – | 1.24 | 1.16 | 1.12 | 1.18 | 1.1
NCI-H2170 | – | – | – | – | – | 0.702 | 0.667 | 0.696 | 0.575 | 0.401 | 0.455 | 0.368 | 0.357 | 0.247 | 0.505 | 0.664 | 0.418 | 0.521 | 0.251
NCI-H1563 | 1.18 | 1.19 | 1.18 | 1.26 | 1.16 | – | – | – | – | – | – | – | – | – | – | – | – | – | –
ABC-1 | 0.808 | 0.717 | 0.626 | 0.747 | 0.732 | 0.185 | 0.177 | 0.235 | 0.217 | 0.815 | 0.631 | 0.474 | 0.563 | 0.444 | – | – | – | – | –
LCLC-103H | 1.04 | 1.09 | 1.06 | 1.11 | 0.891 | 0.494 | 0.487 | 0.465 | 0.44 | 0.494 | 0.417 | 0.52 | 0.462 | 0.434 | – | – | – | – | –
